Earlier results in patent US20230255250A1, “COMPOSITION FOR NUTRITIONAL SUPPLEMENTATION THAT PREVENTS DAMAGE CAUSED BY OXIDATIVE STRESS, HAVING AS PRINCIPLES XANTHOPHYLLS FROM MICROALGAE” (priority 2022, published 2023).

Assays:
[1] = doses less than 500 mg/kg intravenously
[2] = tested on: T lymphocytes
[3] = water at room temperature
[4] = tested on: dendritic cells

Substance: 2-Hydroxylpropyl-beta-cyclodextrin [HP-β-CD]
- toxicity [1]: not toxic
- proliferation and activation of T lymphocytes [2]: induces proliferation and activation
- solubility in water [3]: greater than 500 mg/mL
- regulation of molecules such as MHC proteins, and of PD-L1/L2 ([4]; HP-β-CD stimulated dendritic cells): remarkable regulation
- production of IL-6 ([4]; treated with HP-β-CD): increased
- production of IL-10 ([4]; treated with HP-β-CD): increased
- production of TNF-α ([4]; treated with HP-β-CD): increased
